Data from patent US20200216441A1, “PESTICIDALLY ACTIVE HETEROCYCLIC DERIVATIVES WITH SULFUR CONTAINING SUBSTITUENTS” (SYNGENTA PARTICIPATIONS AG, priority 2017, published 2020).

What was measured:
[1] = tested on: Euschistus heros (Neotropical Brown Stink Bug); test: whole plant or invertebrate; type: in vivo; details: 120 h, application rate of 200 ppm, N2 nymphs on sprayed soybean leaves, 5 days after infestation, read-out: effect in at least one of the two categories (mortality or growth inhibition)
[2] = tested on: Myzus persicae (Green Peach Aphid); test: whole plant or invertebrate; type: in vivo; details: 144 h, test rate of 24 ppm, systemic, roots of infested pea seedlings in test solution, 6 days
[3] = tested on: Plutella xylostella (Diamond Back Moth); test: whole plant or invertebrate; type: in vivo; details: 120 h, application rate of 200 ppm, L2 larvae on treated artificial diet, 5 days after infestation, read-out: effect in at least one of the two categories (mortality or growth inhibition)
[4] = tested on: Spodoptera littoralis (Egyptian Cotton Leaf Worm); test: Spodoptera littoralis (Egyptian Cotton Leaf Worm), uptake by lettuce roots from agar; type: in vivo; details: 144 h, test rate of 12.5 ppm, compound in agar absorbed by lettuce roots, 6 days after infestation, read-out: effect in at least one of the three categories (mortality, anti-feeding, or growth inhibition)
Source text: Example B10: Spodoptera littoralis (Egyptian Cotton Leaf Worm)
Test compounds were applied by pipette from 10′000 ppm DMSO stock solutions into 24-well plates and mixed with agar. Lettuce seeds were placed onto the agar and the multi well plate was closed by another plate which contained also agar. After 7 days the compound was absorbed by the roots and the lettuce grew into the lid plate. The lettuce leaves were then cut off into the lid plate. Spodoptera eggs were pipetted through a plastic stencil onto a humid gel blotting paper and the lid plate was closed with it.

[5] = tested on: Myzus persicae (Green Peach Aphid); test: whole plant or invertebrate; details: foliar, 144 h
[6] = tested on: Spodoptera littoralis (Egyptian Cotton Leaf Worm); test: whole plant or invertebrate; details: in Gossypium barbadense, foliar, 72 h, read-out: control (mortality, anti-feeding effect, growth inhibition)
[7] = tested on: Diabrotica Balteata (Corn Root Worm); test: Diabrotica balteata (Corn Root Worm); details: in Zea mays, 96 h, read-out: effect in at least one of the two categories (mortality or growth inhibition)
[8] = tested on: Bemisia tabaci (Cotton White Fly); details: in Gossypium hirsutum, foliar, 144 h
[9] = tested on: Frankliniella occidentalis (Western Flower Thrips); details: foliar, 168 h
[10] = tested on: Tetranychus urticae (Two-Spotted Spider Mite); details: foliar, 192 h

CCS(=O)(=O)c1cc(OCC2CC2)cnc1-c1nc2cc(C(F)(F)F)ncc2n1C [Compound P24, 2-[5-(cyclopropylmethoxy)-3-ethylsulfonyl-2-pyridyl]-3-methyl-6-(trifluoromethyl)imidazo[4,5-c]pyridine]
percent effect (mortality or growth inhibition) at 200 ppm [1]: ≥ 80%
mortality at 24 ppm [2]: ≥ 80%
percent effect (mortality or growth inhibition) at 200 ppm [3]: ≥ 80%
percent effect (mortality, anti-feeding or growth inhibition) at 12.5 ppm [4]: ≥ 80%
mortality at 200 ppm [5]: ≥ 80%
mortality at 200 ppm [6]: ≥ 80%
mortality at 200 ppm [7]: ≥ 80%

CCS(=O)(=O)c1cc(OC(C)(C)C(=O)O)cnc1-c1nc2cc(C(F)(F)F)ncc2n1C
melting point: 242 to 244 °C

CCS(=O)(=O)c1cc(OC(C)(F)F)ccc1-c1nc2cc(C(F)(F)F)ncc2n1C
melting point: 142 to 144 °C

CCSc1cc(OC(C)(C)C(=O)O)cnc1-c1nc2cc(C(F)(F)F)ncc2n1C
melting point: 161 to 163 °C

CCS(=O)(=O)c1cc(OC(C)C(=O)OC)cnc1-c1nc2cc(C(F)(F)F)ncc2n1C (centres unmarked)
melting point: 131 to 133 °C

CCS(=O)(=O)c1cc(OCC(C)(F)F)cnc1-c1nc2cc(C(F)(F)F)ncc2n1C [Compound P41, 2-[5-(2,2-difluoropropoxy)-3-ethylsulfonyl-2-pyridyl]-3-methyl-6-(trifluoromethyl)imidazo[4,5-c]pyridine]
percent effect (mortality or growth inhibition) at 200 ppm [1]: ≥ 80%
mortality at 24 ppm [2]: ≥ 80%
percent effect (mortality or growth inhibition) at 200 ppm [3]: ≥ 80%
mortality at 200 ppm [5]: ≥ 80%
mortality at 200 ppm [6]: ≥ 80%
mortality at 200 ppm [7]: ≥ 80%
mortality at 200 ppm [8]: ≥ 80%
mortality at 200 ppm [9]: ≥ 80%

CCS(=O)(=O)c1cc(OC(SC)C(=O)OC)cnc1-c1nc2cc(C(F)(F)F)ncc2n1C (centres unmarked)
melting point: 94 to 96 °C

CCS(=O)(=O)c1cc(OC(SC)C(N)=O)cnc1-c1nc2cc(C(F)(F)F)ncc2n1C (centres unmarked)
melting point: 142 to 144 °C

CCS(=O)(=O)c1cc(OC(C)C)cnc1-c1nc2cc(C(F)(F)F)ncc2n1C [Compound P28, 2-(3-ethylsulfonyl-5-isopropoxy-2-pyridyl)-3-methyl-6-(trifluoromethyl)imidazo[4,5-c]pyridine]
percent effect (mortality or growth inhibition) at 200 ppm [1]: ≥ 80%
mortality at 24 ppm [2]: ≥ 80%
percent effect (mortality or growth inhibition) at 200 ppm [3]: ≥ 80%
percent effect (mortality, anti-feeding or growth inhibition) at 12.5 ppm [4]: ≥ 80%
mortality at 200 ppm [5]: ≥ 80%
mortality at 200 ppm [6]: ≥ 80%
mortality at 200 ppm [7]: ≥ 80%
mortality at 200 ppm [8]: ≥ 80%

CCS(=O)(=O)c1cc(OC(F)(F)CBr)ccc1-c1nc2cc(C(F)(F)F)ncc2n1C
melting point: 137 to 139 °C

CCS(=O)(=O)c1cc(OC(C)(F)F)cnc1-c1nc2cc(C(F)(F)F)ncc2n1C [Compound P78, 2-[5-(1,1-difluoroethoxy)-3-ethylsulfonyl-2-pyridyl]-3-methyl-6-(trifluoromethyl)imidazo[4,5-c]pyridine]
percent effect (mortality or growth inhibition) at 200 ppm [1]: ≥ 80%
mortality at 24 ppm [2]: ≥ 80%
percent effect (mortality or growth inhibition) at 200 ppm [3]: ≥ 80%
mortality at 200 ppm [5]: ≥ 80%
mortality at 200 ppm [6]: ≥ 80%
mortality at 200 ppm [7]: ≥ 80%
mortality at 200 ppm [8]: ≥ 80%
mortality at 200 ppm [9]: ≥ 80%

CCS(=O)(=O)c1cc(OC(C(=O)OC)S(C)(=O)=O)cnc1-c1nc2cc(C(F)(F)F)ncc2n1C (centres unmarked)
melting point: 122 to 124 °C

CCS(=O)(=O)c1cc(OC(C)(C)C(C)=O)cnc1-c1nc2cc(C(F)(F)F)ncc2n1C
melting point: 138 to 140 °C

CCS(=O)(=O)c1cc(OCSC)cnc1-c1nc2cc(C(F)(F)F)ncc2n1C [Compound P10, 2-[3-ethylsulfonyl-5-(methylsulfanylmethoxy)-2-pyridyl]-3-methyl-6-(trifluoromethyl)imidazo[4,5-c]pyridine]
percent effect (mortality or growth inhibition) at 200 ppm [1]: ≥ 80%
mortality at 24 ppm [2]: ≥ 80%
mortality at 200 ppm [5]: ≥ 80%
mortality at 200 ppm [6]: ≥ 80%
mortality at 200 ppm [7]: ≥ 80%
mortality at 200 ppm [8]: ≥ 80%
mortality at 200 ppm [9]: ≥ 80%

CCS(=O)(=O)c1cc(OCC2(C#N)CC2)cnc1-c1nc2cc(C(F)(F)F)ncc2n1C [Compound P79, 1-[[5-ethylsulfonyl-6-[3-methyl-6-(trifluoromethyl)imidazo[4,5-c]pyridin-2-yl]-3-pyridyl]oxymethyl]cyclopropanecarbonitrile]
percent effect (mortality or growth inhibition) at 200 ppm [1]: ≥ 80%
mortality at 24 ppm [2]: ≥ 80%
percent effect (mortality or growth inhibition) at 200 ppm [3]: ≥ 80%
mortality at 200 ppm [5]: ≥ 80%
mortality at 200 ppm [6]: ≥ 80%
mortality at 200 ppm [7]: ≥ 80%
mortality at 200 ppm [8]: ≥ 80%
mortality at 200 ppm [10]: ≥ 80%

CCS(=O)(=O)c1cc(OC(C#N)SC)cnc1-c1nc2cc(C(F)(F)F)ncc2n1C (centres unmarked)
melting point: 204 to 206 °C

CCS(=O)(=O)c1cc(OC(F)(F)Br)cnc1-c1nc2cc(C(F)(F)F)ncc2n1C [Compound P99, 2-[5-[bromo(difluoro)methoxy]-3-ethylsulfonyl-2-pyridyl]-3-methyl-6-(trifluoromethyl)imidazo[4,5-c]pyridine]
percent effect (mortality or growth inhibition) at 200 ppm [1]: ≥ 80%
percent effect (mortality or growth inhibition) at 200 ppm [3]: ≥ 80%
percent effect (mortality, anti-feeding or growth inhibition) at 12.5 ppm [4]: ≥ 80%
mortality at 200 ppm [6]: ≥ 80%
mortality at 200 ppm [7]: ≥ 80%
mortality at 200 ppm [10]: ≥ 80%

CCOC(=O)C(C)(C)Oc1cnc(-c2nc3cc(C(F)(F)F)ncc3n2C)c(S(=O)(=O)CC)c1
melting point: 145 to 147 °C

CCS(=O)(=O)c1cc(ON=C(C)C)cnc1-c1nc2cc(C(F)(F)F)ncc2n1C [Compound P97, N-[[5-ethylsulfonyl-6-[3-methyl-6-(trifluoromethyl)imidazo[4,5-c]pyridin-2-yl]-3-pyridyl]oxy]propan-2-imine]
percent effect (mortality or growth inhibition) at 200 ppm [1]: ≥ 80%
percent effect (mortality or growth inhibition) at 200 ppm [3]: ≥ 80%
percent effect (mortality, anti-feeding or growth inhibition) at 12.5 ppm [4]: ≥ 80%
mortality at 200 ppm [5]: ≥ 80%
mortality at 200 ppm [6]: ≥ 80%
mortality at 200 ppm [7]: ≥ 80%
mortality at 200 ppm [8]: ≥ 80%

CCS(=O)(=O)c1cc(OC(C)C)cnc1-c1nc2cc([S+]([O-])C(F)(F)F)ncc2n1C (centres unmarked) [Compound P60, 2-(3-ethylsulfonyl-5-isopropoxy-2-pyridyl)-3-methyl-6-(trifluoromethylsulfinyl)imidazo[4,5-c]pyridine]
percent effect (mortality or growth inhibition) at 200 ppm [1]: ≥ 80%
mortality at 24 ppm [2]: ≥ 80%
percent effect (mortality or growth inhibition) at 200 ppm [3]: ≥ 80%
mortality at 200 ppm [5]: ≥ 80%
mortality at 200 ppm [6]: ≥ 80%
mortality at 200 ppm [8]: ≥ 80%
mortality at 200 ppm [10]: ≥ 80%
mortality at 200 ppm [9]: ≥ 80%

CCS(=O)(=O)c1cc(OC(CF)CF)cnc1-c1nc2cc(C(F)(F)F)ncc2n1C [Compound P53, 2-[3-ethylsulfonyl-5-[2-fluoro-1-(fluoromethyl)ethoxy]-2-pyridyl]-3-methyl-6-(trifluoromethyl)imidazo[4,5-c]pyridine]
percent effect (mortality or growth inhibition) at 200 ppm [1]: ≥ 80%
mortality at 24 ppm [2]: ≥ 80%
percent effect (mortality or growth inhibition) at 200 ppm [3]: ≥ 80%
mortality at 200 ppm [5]: ≥ 80%
mortality at 200 ppm [6]: ≥ 80%
mortality at 200 ppm [7]: ≥ 80%
mortality at 200 ppm [8]: ≥ 80%
mortality at 200 ppm [10]: ≥ 80%
mortality at 200 ppm [9]: ≥ 80%

CCS(=O)(=O)c1cc(OC(C)(C)C)cnc1-c1nc2cc(C(F)(F)F)ncc2n1C [Compound P5, 2-(5-tert-butoxy-3-ethylsulfonyl-2-pyridyl)-3-methyl-6-(trifluoromethyl)imidazo[4,5-c]pyridine]
percent effect (mortality or growth inhibition) at 200 ppm [1]: ≥ 80%
mortality at 24 ppm [2]: ≥ 80%
percent effect (mortality or growth inhibition) at 200 ppm [3]: ≥ 80%
mortality at 200 ppm [5]: ≥ 80%
mortality at 200 ppm [6]: ≥ 80%
mortality at 200 ppm [7]: ≥ 80%
mortality at 200 ppm [8]: ≥ 80%
mortality at 200 ppm [10]: ≥ 80%

CCS(=O)(=O)c1cc(OC(C)(C)C#N)ccc1-c1nc2cc(C(F)(F)F)ncc2n1C [Compound P103, 2-[3-ethylsulfonyl-4-[3-methyl-6-(trifluoromethyl)imidazo[4,5-c]pyridin-2-yl]phenoxy]-2-methyl-propanenitrile]
percent effect (mortality or growth inhibition) at 200 ppm [1]: ≥ 80%
mortality at 24 ppm [2]: ≥ 80%
percent effect (mortality or growth inhibition) at 200 ppm [3]: ≥ 80%
mortality at 200 ppm [5]: ≥ 80%
mortality at 200 ppm [6]: ≥ 80%
mortality at 200 ppm [7]: ≥ 80%
mortality at 200 ppm [8]: ≥ 80%
mortality at 200 ppm [10]: ≥ 80%
mortality at 200 ppm [9]: ≥ 80%
